These results are taken from paper PMC8708704, “Discovery of New Chemical Tools against Leishmania amazonensis via the MMV Pathogen Box” (Pharmaceuticals, 2021).

One data set relates to promastigotes. Particulars: read-out: IC50 against promastigotes, cited from earlier work.
Data set [1] can be described thus: Cytotoxic activity against murine macrophages (alamarBlue). The following applies: mouse, J774A.1 murine macrophages. For orientation: Resazurin is reduced to fluorescent resorufin, in cell work by metabolically active cells.
Data set [2] concerns intracellular amastigotes. Particulars: read-out: IC50 against intracellular amastigotes, cited from earlier work.
The subject of data set [3] is Leishmania amazonensis intracellular amastigote. Put plainly: Intracellular amastigote activity (parasite rescue and transformation assay). The format is cell-based. Particulars: for Selectivity Index (CC50/IC50), intracellular amastigote: macrophage CC50 / amastigote IC50; for IC50: Leishmania amazonensis, Macrophage, 24 h treatment of infected macrophages, rescue 72 h, read-out: Leishmania amazonensis Intracellular Amastigote IC50. Here is the method: The intracellular amastigote activity was measured by parasite rescue and transformation assay, also performed according to Jain et al. […] The macrophages were placed in a 96 well plate at a density of 2 × 10^5/mL in DMEM and incubated for 5 h. […] After the incubation, the excess promastigotes were washed off and serial dilutions of the compounds were added. After 24 h of incubation, we removed the medium and added 30 μL of Schneider medium with 0.05% SDS to break the macrophages. The plate was shaken for 30 s and a further 180 μL of medium was added to each well. The plates were then incubated at 26 °C for 72 h for the transformation of the rescued amastigote into promastigotes. AlamarBlue® was added and the plates were measured and analyzed as discussed above.

Data set [4] has as its system Leishmania amazonensis promastigotes. The data set can be described thus: Leishmanicidal activity against promastigotes (alamarBlue assay; screening at 10 µM and IC50). The format is cell-based. The following applies: for Selectivity Index (CC50/IC50), promastigotes: macrophage CC50 / promastigote IC50; for IC50 / inhibition at 10 µM: 72 h; for IC50: alamarBlue, read-out: Leishmania amazonensis Promastigotes IC50; for inhibition at 10 µM: first screening, read-out: % of inhibition at 10 µM (against L. amazonensis promastigotes). How it is done: For the experiments, promastigotes of Leishmania amazonensis strain (MHOM/BR/77/LTB0016) were used; they were maintained in RPMI 1640 medium (Gibco, Massachusetts, USA) at 26 °C. […] Subsequently, the plates were analyzed on an EnSpire multimode plate reader (PerkinElmer, MA, USA) to measure their fluorescence after 72 h. […] To this end, serial dilutions were performed in 96 well plates, and incubated with the parasites for 72 h after adding alamarBlue®. Next, the plates were analyzed on the EnSpire plate reader and the IC50 values were calculated by using SigmaPlot 14.0 (Systat Software Inc., Chicago, IL, USA). Each concentration was tested in duplicate and in three independent experiments for all the compounds.

The subject of another data set is Plasmodium falciparum. Details: method as in PMID 19091562. The following applies: cited from earlier work.
For data set [5], the system named is Leishmania amazonensis promastigotes. The data set can be described thus: ATP levels (CellTiter-Glo). The format is cell-based. Particulars: IC90 of the compounds, 24 h. How it is done:
To detect alterations due to the different treatments on the cellular ATP levels, CellTiter-Glo (Promega) was utilized. […] Finally, luminescence was measured on the EnSpire spectrophotometer (Perkin Elmer). The experiment was performed at least three times in duplicate on different days.
On the technique in general: Cellular ATP, detected with luciferase, serves as a proxy for viable cell number.

Data set [6] relates to L. amazonensis promastigotes. The data set can be described thus: Reactive oxygen species detection (CellROX Deep Red). The class given is cell-based, Leishmania amazonensis. Particulars: IC90 of the compounds, 24 h. Here is the method:
After 30 min in darkness, the cells were observed under a fluorescent inverted microscope EVOS FL (Life Technologies, Thermo Fisher Scientific, Waltham, MA, USA). This staining was performed three times in independent tests. A positive control was performed as the internal control and corresponded to cells in which ROS production was achieved through the incubation of parasites with 600 µM hydrogen peroxide 30 min before detection.

Data set [7] relates to methionine aminopeptidase. Details: method as in PMID 28674055. Particulars: cited from earlier work.
Data set [8] deals with intracellular amastigotes of L. donovani. Particulars: cited from earlier work.
In data set [9] the test system is Trypanosoma brucei brucei trypomastigotes. Also on record: method as in PMID 28674055, PMID 19091562. Particulars: cited from earlier work.
The test system of the next data set is CYP2D6. Details: method as in mmv.org. The following applies: human cytochrome; ref mmv.org; cited from earlier work.
The subject of data set [10] is T. cruzi intracellular amastigotes. Also on record: method as in PMID 19091562. The following applies: cited from earlier work.
Another data set has as its system CYP2C9. Also on record: method as in mmv.org. Particulars: human cytochrome; ref mmv.org; cited from earlier work.
Details of data set [11]: method as in mmv.org. The following applies: ref mmv.org; cited from earlier work.
The test system of data set [12] is L. amazonensis promastigotes. Put plainly: Phosphatidylserine externalization (annexin V / propidium iodide, Tali). The format is cell-based, Leishmania amazonensis. Particulars: IC90, 24 h (Figure 4 legend: 48 h). The text has this: To measure the level of population that experiments phosphatidylserine externalization from the inner to the outer part of the cytoplasmic membrane, an Apoptosis kit for Tali (Invitrogen, Thermo Fisher Scientific, Waltham, MA, USA) was utilized. The kit employs annexin-v, which binds to the external phosphatidylserine, and propidium iodide, that penetrates dead cells, to classify the population of the cells as: alive ([…]), dead (propidium stained), and apoptotic (annexin stained). […] A minimum of three independent experiments were performed for this assay. The cells were then quantified by the image-based cytometer Tali® (Life Technologies, Thermo Fisher Scientific, Waltham, MA, USA).

Another data set concerns thioredoxin reductase. Also on record: method as in PMID 18532880. The following applies: cited from earlier work.
Data set [13] deals with T. evansi trypomastigotes. Details: method as in PMID 32112721. Particulars: cited from earlier work.
In data set [14] the test system is L. donovani promastigotes. Details: method as in PMID 32280200. Particulars: cited from earlier work.
A further data set deals with NADPH oxidase 4. Details: method as in PMID 20731357. Particulars: cited from earlier work.

SMILES strings stand for the structures. Read-outs that look alike come from different tables or passages of the source.

In general, IC50 refers to the concentration needed to halve the response being measured. The CC50 is the concentration giving 50% cytotoxicity. A lower CC50 goes with greater toxicity to the cells. The term inhibition denotes how much of the control response was suppressed.

On to `CCCCCCCCCCCCCCCCOP(=O)([O-])OCC[N+](C)(C)C` [Miltefosine], for which the half-inhibitory concentration (IC50) was 7.8 µM in the data set on promastigotes (ref Alonso et al. [15]), 16.8 µM in the data set with promastigotes (ref Trinconi et al. [16]), 1.8 µM in data set [2] (ref Alonso et al. [15]) and 2.6 µM in data set [2] (ref Trinconi et al. [16]). In data set [1], this molecule gave a 50% cytotoxic concentration (CC50) at 24 h of 72.2 ± 3.06 µM. For the same molecule, the “Selectivity Index (CC50/IC50), intracellular amastigote” value in data set [3] was determined as 23.14. Moreover, the “Selectivity Index (CC50/IC50), promastigotes” value in data set [4] is 11.14.

Turning to `c1ccc(-c2nc(NC3CCCCC3)cc(C3CC3)n2)nc1` [Compound 10, N-Cyclohexyl-6-cyclopropyl-2-pyridin-2-ylpyrimidin-4-amine], the “Activity against Plasmodium falciparum” value in the data set on Plasmodium falciparum is “active”. Besides, in data set [5], the ATP levels result is “less pronounced decrease”. In [1], the CC50 at 24 h was more than 10 µM. For the same molecule, the IC50 in data set [3] was 1.33 ± 0.36 µM; in [4] (Leishmania amazonensis) it was less than 2 µM; in data set [4], 1.85 ± 0.39 µM; in the data set on CYP2D6, more than 20 µM; with CYP2C9, more than 20 µM. In addition, in [3], the “Selectivity Index (CC50/IC50), intracellular amastigote” value is more than 7.52. Also, the inhibition at 10 µM in data set [4] (Leishmania amazonensis) was found to be 90%. In addition, the “Selectivity Index (CC50/IC50), promastigotes” value in [4] is on record as more than 5.40. Further, the “ROS accumulation (CellROX Deep Red fluorescence)” value (from here on “ROS accumulation”) in [6] is “accumulation of ROS”. Moreover, the “Inhibition of methionine aminopeptidase” value in data set [7] is “inhibitor”. Further, the “Activity against intracellular amastigotes of L. donovani” value in data set [8] is reported as “activity”. In addition, the “Activity against Trypanosoma brucei brucei trypomastigotes” value in data set [9] is “activity”. Besides, the “Activity against T. cruzi intracellular amastigotes” value in data set [10] was “active”. Besides, the “Glutathione Reactivity” value in data set [11] is on record as “No GSH adduct”.

The molecule `CCCn1c(NC(=O)c2ccc3ccccc3n2)nc2ccccc21` [Compound 6] returned a 50% cytotoxic concentration (CC50) at 24 h in data set [1] of more than 10 µM. In addition, in data set [3], the half-inhibitory concentration (IC50) amounted to 8.52 ± 0.67 µM and the “Selectivity Index (CC50/IC50), intracellular amastigote” value is on record as more than 1.17. The IC50 in [4] (Leishmania amazonensis) was determined as 3.93 ± 0.64 µM. Also, in [4], the “Selectivity Index (CC50/IC50), promastigotes” value is on record as more than 2.54. Further, in [11], the “Glutathione Reactivity” value is “medium”.

On to `COc1cccc(-n2nnnc2S(=O)(=O)Cc2ccccc2)c1` [Compound 3, 5-(Benzylsulfonyl)-1-(3-methoxyphenyl)-1H-tetrazole], for which the ATP levels entry in data set [5] is recorded as “strong decrease”. In [1], this molecule gave a CC50 at 24 h of 8.02 ± 0.93 µM. The “Dead population (propidium iodide stained)” value in data set [12] is recorded as “higher percentage”. The “Translocation of phosphatidylserine, part of the parasite population” value in [12] is listed as “higher than 50%”. In addition, the IC50 in data set [3] was 4.78 ± 1.2 µM; in data set [4] (Leishmania amazonensis), less than 2 µM; in [4], 1.33 ± 0.12 µM; in the data set on CYP2D6 it was 15 µM; with CYP2C9, more than 20 µM. Also, the “Selectivity Index (CC50/IC50), intracellular amastigote” value in data set [3] is on record as 1.68. Moreover, the inhibition at 10 µM in data set [4] (Leishmania amazonensis) turned out to be 91%. The “Interference with thioredoxin reductase” value with thioredoxin reductase is recorded as “interferes”. In addition, the “Glutathione Reactivity” value in [11] is reported as “Medium”.

As to `C[C@H](c1ccc2c(c1)CCCC2)N(C)c1ncc2c(N)nc(N)nc2n1` [Compound 5, 2-N-Methyl-2-N-[(1R)-1-(5,6,7,8-tetrahydronaphthalen-2-yl)ethyl]pyrimido [4,5-d]pyrimidine-2,5,7-triamine], the ATP levels result in data set [5] is given as “strong decrease”. For the same molecule, the CC50 at 24 h in [1] was more than 10 µM. In data set [12], the “Dead population (propidium iodide stained)” value was “higher percentage” and the “Translocation of phosphatidylserine, part of the parasite population” value is on record as “higher than 50%”. Also, in [3], the IC50 was 1.25 ± 0.28 µM and the “Selectivity Index (CC50/IC50), intracellular amastigote” value is more than 8.00. Besides, in [4] (Leishmania amazonensis), the half-inhibitory concentration (IC50) is 0.59 ± 0.08 µM and the inhibition at 10 µM was 90%. Also, the “Selectivity Index (CC50/IC50), promastigotes” value in [4] was more than 17.06. Further, in data set [6], the “ROS accumulation” value is on record as “too damaged to contain the dye”. For the same molecule, the “Anti-leishmanial activity (L. donovani)” value in data set [8] (stage not clearly stated for this compound) was “activity”. Also, the “Activity against Trypanosoma brucei brucei trypomastigotes” value in data set [9] is “activity”. Moreover, the IC50 with CYP2D6 was more than 20 µM. In addition, in the data set with CYP2C9, the 50% inhibitory concentration (IC50) is more than 20 µM. Besides, the “Glutathione Reactivity” value in [11] was “Medium”.

In [1], `CN1CCC(NCc2cccc(-c3ccc(S(=O)(=O)NCc4ccccc4)cc3)c2)CC1` [Compound 7, N-Benzyl-4-[3-[[(1-methylpiperidin-4-yl)amino]methyl]phenyl]benzenesulfonamide] gave a CC50 at 24 h of more than 10 µM. The IC50 in [3] was 2.5 ± 0.27 µM; in data set [4] (Leishmania amazonensis), less than 2 µM; in data set [4], 1.84 ± 0.14 µM; in the data set on CYP2D6, more than 20 µM; with CYP2C9 it was more than 20 µM. Moreover, in [3], the “Selectivity Index (CC50/IC50), intracellular amastigote” value is more than 4.00. The inhibition at 10 µM in data set [4] (Leishmania amazonensis) stood at 91%. In data set [4], the “Selectivity Index (CC50/IC50), promastigotes” value is reported as more than 5.44. For the same molecule, the “ROS accumulation” value in data set [6] was “accumulation of ROS”. Further, the “Activity against Trypanosoma brucei brucei trypomastigotes” value in data set [9] is listed as “activity”. Besides, in data set [11], the “Glutathione Reactivity” value is reported as “No GSH adduct”.

On to `O=C(Nc1ccc(N2CCNCC2)cc1)c1ccn2ncc(-c3cccc(Cl)c3)c2n1` [Compound 9, 3-(3-Chlorophenyl)-N-(4-piperazin-1-ylphenyl)pyrazolo [1,5-a]pyrimidine-5-carboxamide], for which the “Activity against T. evansi trypomastigotes” value in [13] is listed as “active”. Moreover, the half-maximal cytotoxic concentration (CC50) at 24 h in [1] is 7.22 ± 2.36 µM. For the same molecule, the “Activity against L. donovani promastigotes” value in data set [14] is recorded as “activity”. The IC50 in data set [3] is 6.9 ± 1.79 µM; in data set [4] (Leishmania amazonensis), 0.77 ± 0.01 µM; in the data set on CYP2D6, more than 20 µM; with CYP2C9, more than 20 µM. For the same molecule, the “Selectivity Index (CC50/IC50), intracellular amastigote” value in [3] is recorded as 1.05. The inhibition at 10 µM in data set [4] (Leishmania amazonensis) was found to be 91%. The “Selectivity Index (CC50/IC50), promastigotes” value in data set [4] is 9.35. Moreover, in data set [6], the “ROS accumulation” value is “accumulation of ROS”. Moreover, the “Activity against Trypanosoma brucei brucei trypomastigotes” value in data set [9] is “activity”. Besides, the “Inhibition of NADPH oxidase 4” value in the data set on NADPH oxidase 4 was “inhibits”. Also, the “Glutathione Reactivity” value in data set [11] is listed as “No GSH adduct”.
